≈ marks a conversion by molar mass, not a printed value.
tested on: Vaccinia virus; assay: Compound was tested for the concentration required to reduce vaccinia virus induced cytopathogenicity by 50% in primary rabbit kidney cell cultures; assay type: functional; details: Orthopoxvirus vaccinia

Q: `Nc1ncnc2c1ncn2C[C@@H](O)CO` was tested. Which MIC did it give?
A: 70 µg/mL (≈ 335 µM)

tested on: Vaccinia virus; assay: Concentration required to reduce vaccinia virus induced cytopathogenicity by 50% in primary rabbit kidney cell cultures.; assay type: functional; details: Orthopoxvirus vaccinia

Q: How did the MIC turn out when `Nc1ncnc2c1cc(Br)n2C1O[C@H](CO)[C@@H](O)[C@H]1O` (some centres undefined) was run?
A: 300 µg/mL (≈ 869 µM)

Q: Which MIC does the source give for `Nc1ncnc2c1c(Br)c(Br)n2C1O[C@H](CO)[C@@H](O)[C@H]1O` (some centres undefined) here?
A: 20 µg/mL (≈ 47.2 µM)

Q: Which MIC does the source give for `Nc1ncnc2c1c(CCCO)cn2C1O[C@H](CO)[C@@H](O)[C@H]1O` (some centres undefined) here?
A: 2 µg/mL (≈ 6.17 µM)

Q: `Nc1ncnc2c1c(/C=C/Br)cn2C1O[C@H](CO)[C@@H](O)[C@H]1O` (some centres undefined) was tested. Which MIC did it give?
A: > 1 µg/mL

Q: Which MIC does the source give for `Nc1ncnc2c1c(Cl)c(Cl)n2C1O[C@H](CO)[C@@H](O)[C@H]1O` (some centres undefined) here?
A: > 40 µg/mL

Q: How did the MIC turn out when `N#C/C=C/c1cn(C2O[C@H](CO)[C@@H](O)[C@H]2O)c2ncnc(N)c12` (some centres undefined) was run?
A: 0.7 µg/mL (≈ 2.21 µM)

Q: `CC(O)c1cn(C2O[C@H](CO)[C@@H](O)[C@H]2O)c2ncnc(N)c12` (some centres undefined) was tested. Which MIC did it give?
A: 0.7 µg/mL (≈ 2.26 µM)

Q: Which MIC does the source give for `COC(C)c1cn(C2O[C@H](CO)[C@@H](O)[C@H]2O)c2ncnc(N)c12` (some centres undefined) here?
A: 0.7 µg/mL (≈ 2.16 µM)

Q: With `C/C=C/Cc1cn(C2O[C@H](CO)[C@@H](O)[C@H]2O)c2ncnc(N)c12` (some centres undefined) as the molecule, how does the MIC read?
A: 0.7 µg/mL (≈ 2.19 µM)

Q: How did the MIC turn out when `CCCCc1cn(C2O[C@H](CO)[C@@H](O)[C@H]2O)c2ncnc(N)c12` (some centres undefined) was run?
A: > 40 µg/mL

Q: How did the MIC turn out when `Nc1ncnc2c1c(Br)cn2[C@@H]1O[C@H](CO)[C@@H](O)[C@H]1O` was run?
A: 0.2 µg/mL (≈ 0.579 µM)

Q: Which MIC does the source give for `Nc1nccc2c1ncn2[C@@H]1C[C@H](CO)[C@H](O)C1O` (some centres undefined) here?
A: 0.1 µg/mL (≈ 0.378 µM)

Q: With `Nc1ncnc2c1c(Cl)cn2[C@@H]1O[C@H](CO)[C@@H](O)[C@H]1O` as the molecule, how does the MIC read?
A: > 1 µg/mL

Q: With `Nc1ncnc2c1c(I)cn2[C@@H]1O[C@H](CO)[C@@H](O)[C@H]1O` [IODOTUBERCIDIN] as the molecule, how does the MIC read?
A: 0.07 µg/mL (≈ 0.179 µM)

Q: How did the MIC turn out when `NC(=O)c1ncn([C@@H]2O[C@H](CO)[C@@H](O)[C@H]2O)n1` [RIBAVIRIN] was run?
A: 10 µg/mL (≈ 40.9 µM)

Q: Which MIC does the source give for `NC(=O)c1cn([C@@H]2O[C@H](CO)[C@@H](O)[C@H]2O)c2ncnc(N)c12` [SANGIVAMYCIN] here?
A: 0.02 µg/mL (≈ 0.0647 µM)

Q: For `N#Cc1cn([C@@H]2O[C@H](CO)[C@@H](O)[C@H]2O)c2ncnc(N)c12` [TOYOCAMYCIN], which MIC is on record?
A: > 0.01 µg/mL

Q: With `Nc1ncnc2c1ccn2[C@@H]1O[C@H](CO)[C@@H](O)[C@H]1O` [TUBERCIDIN] as the molecule, how does the MIC read?
A: 0.02 µg/mL (≈ 0.0751 µM)
